The test has as its system P388. The test can be described thus: Cytotoxicity against mouse P388 cells. The format is functional, cell-based.

Non-standard residues stand in square brackets, D forms with d. Residues, ends and D or L forms follow the SMILES beside them. *: point of attachment. NMeI = CC[C@H](C)[C@H](NC)C(=O)O; NMeV = CN[C@H](C(=O)O)C(C)C; X2 = C[S+]([O-])/C=C/C(=O)*; NMeA = CN[C@@H](C)C(=O)O; X1 = O=C(/C=C/c1ccccc1)*

Compound `CC[C@H](C)[C@@H](C(=O)NC)N(C)C(=O)[C@@H](NC(=O)[C@H](C(C)C)N(C)C(=O)[C@H]([C@@H](C)CC)N(C)C(=O)[C@H](C)N(C)C(=O)/C=C/c1ccccc1)C(C)C` [PTERULAMIDE IV] (X1-[NMeA][NMeI][NMeV]V[NMeI]-NHMe) displayed an IC50 of 1.33 µM. `CC[C@H](C)[C@@H](C(=O)NC)N(C)C(=O)[C@@H](NC(=O)[C@H](C(C)C)N(C)C(=O)[C@H]([C@@H](C)CC)N(C)C(=O)[C@H](C)N(C)C(=O)/C=C/[S+](C)[O-])C(C)C` (some centres not stated) [PTERULAMIDE I] (X2-[NMeA][NMeI][NMeV]V[NMeI]-NHMe): the IC50 stood at 0.79 µM.
